Results reported in ChEMBL document CHEMBL5579887, “Structure-Activity Relationship Studies of Substituted 2-Phenyl-1,2,4-triazine-3,5(2H,4H)-dione Analogues: Development of Potent eEF2K Degraders against Triple-Negative Breast Cancer” (J Med Chem, 2024).
Converted amounts (≈) assume the structure as drawn.

Columns and labels:
MDA-MB-231 [1] = assay: cells; settings: Homo sapiens, MDA-MB-231, 72 h, read-out: INH
Description: Antitumor activity against human MDA-MB-231 cells assessed as inhibition of cell viability by measuring inhibition rate at 20 uM measured after 72 hrs by CCK-8 assay relative to control

MDA-MB-231 [2] = assay: cells; settings: Homo sapiens, MDA-MB-231, 72 h, read-out: INH; remark: listed apart in the source
Description: Antitumor activity against human MDA-MB-231 cells assessed as inhibition of cell viability by measuring inhibition rate at 1 uM measured after 72 hrs by CCK-8 assay relative to control

[3] = Kinetic solubility of the compound in PBS buffer at pH 7.4 measured by HPLC analysis
MDA-MB-231 [4] = assay: cells; settings: Homo sapiens, MDA-MB-231, 72 h
Description: Antitumor activity against human MDA-MB-231 cells assessed as inhibition of cell viability by measuring inhibition rate measured after 72 hrs by CCK-8 assay relative to control

Structure (SMILES) | solubility kinetic [3] [µM] | IC50 (MDA-MB-231 [4]) [nM] | inhibition at 20 µM (MDA-MB-231 [1]) [%] | inhibition at 1 µM (MDA-MB-231 [2]) [%]
Cc1ccc(-n2nc(C#N)c(=O)n(Cc3ccccc3)c2=O)cc1C |  |  | 96.4 | 58.1
Cc1ccc(-n2nc(C(=O)NCCN3CCOCC3)c(=O)n(Cc3ccccc3)c2=O)cc1C |  |  | 60.9 | 
Cc1ccc(-n2nc(C(=O)N3CCN(c4ccccc4)CC3)c(=O)n(Cc3ccccc3)c2=O)cc1C |  |  | 79 | 
CCn1c(=O)c2cc(C(N)=O)c(N)nc2n(C2CC2)c1=O |  |  | 4.67 | 
Cc1ccc(-n2nc(C(=O)N3CCCNCC3)c(=O)n(Cc3ccccc3)c2=O)cc1C |  |  | 53.6 | 
Cc1ccc(-n2nc(C(=O)NCc3ccccn3)c(=O)n(Cc3ccccc3)c2=O)cc1C |  |  | 71.2 | 
Cc1ccc(-n2nc(C#N)c(=O)n(Cc3ccccn3)c2=O)cc1C |  |  | -4.94 | 
Cc1ccc(-n2nc(C(=O)N3CCC[C@H](NC(=O)OC(C)(C)C)C3)c(=O)n(Cc3cccc(F)c3)c2=O)cc1C |  |  | 98 | 8.56
Cc1ccc(-n2nc(C(=O)N3CCN(C(=O)OC(C)(C)C)CC3)c(=O)n(Cc3cccc(F)c3)c2=O)cc1C |  |  | 95 | 
CCOC(=O)N1CCN(C(=O)c2nn(-c3ccc(C)c(C)c3)c(=O)n(Cc3cccc(F)c3)c2=O)CC1 |  |  | 95.5 | 
Cc1ccc(-n2nc(C(=O)N3CC(N(C)C(=O)OC(C)(C)C)C3)c(=O)n(Cc3cccc(F)c3)c2=O)cc1C |  |  | 98.5 | 
Cc1ccc(-n2nc(C(=O)N3CCN(C(=O)N(C)C)CC3)c(=O)n(Cc3cccc(F)c3)c2=O)cc1C |  |  | 12.8 | 
Cc1ccc(-n2nc(C(=O)NC3CCN(Cc4ccccc4)CC3)c(=O)n(Cc3ccccc3)c2=O)cc1C |  |  | 74.9 | 
Cc1ccc(-n2nc(C(=O)N3CCC(F)CC3)c(=O)n(Cc3ccccc3)c2=O)cc1C | 57 (≈ 24.9 µg/mL) | 132 | 99.3 | 89.5
Cc1ccc(-n2nc(C(=O)N3CCC3)c(=O)n(Cc3ccccc3)c2=O)cc1C |  |  | 98.7 | 17.7
Cc1ccc(-n2nc(C(=O)N3CCC(F)(F)CC3)c(=O)n(Cc3cccc(F)c3)c2=O)cc1C |  |  | 84.3 | 58.6
Cc1ccc(-n2nc(C(=O)N3CC(NC(=O)OC(C)(C)C)C3)c(=O)n(Cc3cccc(F)c3)c2=O)cc1C |  |  | 73 | 
Cc1ccc(-n2nc(C#N)c(=O)n(Cc3ccc(F)cc3)c2=O)cc1C |  |  | 93.6 | -1.93
Cc1ccc(-n2nc(C#N)c(=O)n(Cc3ccncc3)c2=O)cc1C |  |  | 0.27 | 
Cc1ccc(-n2nc(C(=O)N3CCN(C(=O)C4CC4)CC3)c(=O)n(Cc3cccc(F)c3)c2=O)cc1C |  |  | 22.2 | 
Cc1ccc(-n2nc(C#N)c(=O)n(Cc3ccccc3F)c2=O)cc1C |  |  | 93.5 | -3.59

Further lines, with some results ahead:

solubility kinetic [3] [µM] | IC50 (MDA-MB-231 [4]) [nM] | Structure (SMILES) | inhibition at 20 µM (MDA-MB-231 [1]) [%] | inhibition at 1 µM (MDA-MB-231 [2]) [%]
25 (≈ 11.8 µg/mL) |  | COc1ccccc1CNC(=O)c1nn(-c2ccc(C)c(C)c2)c(=O)n(Cc2ccccc2)c1=O | 17.5 | 
17 (≈ 7.42 µg/mL) | 168 | Cc1ccc(-n2nc(C(=O)N3CCCCC3)c(=O)n(Cc3cccc(F)c3)c2=O)cc1C | 99.6 | 93.3
 | > 1000 | Cc1ccc(-n2nc(C(=O)N3CCNCC3)c(=O)n(Cc3ccccc3)c2=O)cc1C | 96.7 | 
47 (≈ 17.7 µg/mL) |  | Cc1ccc(-n2nc(C(=O)N3CC3)c(=O)n(Cc3ccccc3)c2=O)cc1C | 72.7 | 
106 (≈ 35.3 µg/mL) |  | Cc1ccc(-n2nc(C#N)c(=O)n(Cc3cccnc3)c2=O)cc1C | 34.8 | 
71 (≈ 20.9 µg/mL) |  | CC#CCn1c(=O)c(C#N)nn(-c2ccc(C)c(C)c2)c1=O | 85.5 | 
20 (≈ 8.73 µg/mL) | 94.1 | Cc1ccc(-n2nc(C(=O)N3CCCCC3)c(=O)n(Cc3ccccc3F)c2=O)cc1C | 99.2 | 93.5
 | > 1000 | CCN1CCN(C(=O)c2nn(-c3ccc(C)c(C)c3)c(=O)n(Cc3ccccc3)c2=O)CC1 | 93.3 | 
 | ~1000 | O=C(/C=C/c1cccc(C(F)(F)F)c1)c1cc2ccccc2oc1=O |  | 
30 (≈ 12.1 µg/mL) | 288 | Cc1ccc(-n2nc(C(=O)N3CCCC3)c(=O)n(Cc3ccccc3)c2=O)cc1C | 95.4 | 83.4
90 (≈ 45.8 µg/mL) | 131 | CCOC(=O)C1CCCN(C(=O)c2nn(-c3ccc(C)c(C)c3)c(=O)n(Cc3cccc(F)c3)c2=O)C1 (centres undefined) | 98.4 | 87.6
 | > 1000 | Cc1ccc(-n2nc(C(=O)NCCN(C)C)c(=O)n(Cc3ccccc3)c2=O)cc1C | 97.7 | 
56 (≈ 21.2 µg/mL) | 867 | Cc1ccc(-n2nc(C(=O)N(C)C)c(=O)n(Cc3ccccc3)c2=O)cc1C | 89.8 | 64
15 (≈ 5.26 µg/mL) |  | Cc1ccc(-n2nc(C#N)c(=O)n(Cc3cccc(F)c3)c2=O)cc1C | 91.1 | 23.2
67 (≈ 26.8 µg/mL) |  | Cc1ccc(-n2nc(C#N)c(=O)n(Cc3cccc(C(F)(F)F)c3)c2=O)cc1C | 92.9 | 19.3
96 (≈ 41.9 µg/mL) | 771 | Cc1ccc(-n2nc(C(=O)N3CCCCC3)c(=O)n(Cc3ccc(F)cc3)c2=O)cc1C | 94.1 | 63.8
 | > 1000 | Cc1ccc(-n2nc(C(=O)N3CCCN(C)CC3)c(=O)n(Cc3ccccc3)c2=O)cc1C | 97.2 | 
129 (≈ 71.2 µg/mL) | 478 | Cc1ccc(-n2nc(C(=O)N3CCC[C@@H](NC(=O)OC(C)(C)C)C3)c(=O)n(Cc3cccc(F)c3)c2=O)cc1C | 98.3 | 74.1
19 (≈ 10.2 µg/mL) | 279 | Cc1ccc(-n2nc(C(=O)N3CCC(C(=O)OC(C)(C)C)CC3)c(=O)n(Cc3cccc(F)c3)c2=O)cc1C | 90.4 | 90.7
57 (≈ 32.2 µg/mL) | 232 | Cc1ccc(-n2nc(C(=O)N3CCC[C@@H](CNC(=O)OC(C)(C)C)C3)c(=O)n(Cc3cccc(F)c3)c2=O)cc1C | 99.3 | 92.1
36 (≈ 16.4 µg/mL) | 484 | Cc1ccc(-n2nc(C(=O)N3CCC(F)(F)CC3)c(=O)n(Cc3ccccc3)c2=O)cc1C | 96.8 | 61.5
54 (≈ 29 µg/mL) |  | Cc1ccc(-n2nc(C(=O)N3CCCN(C(=O)OC(C)(C)C)C3)c(=O)n(Cc3cccc(F)c3)c2=O)cc1C | 96 | 39.9
62 (≈ 26.8 µg/mL) | 45.9 | Cc1ccc(-n2nc(C(=O)N3CCCCCC3)c(=O)n(Cc3ccccc3)c2=O)cc1C | 99.7 | 96
41 (≈ 22.6 µg/mL) | 611 | Cc1ccc(-n2nc(C(=O)N3CCCN(C(=O)OC(C)(C)C)CC3)c(=O)n(Cc3cccc(F)c3)c2=O)cc1C | 98.3 | 71.1
99 (≈ 55.8 µg/mL) |  | Cc1ccc(-n2nc(C(=O)N3C4CCC3CN(C(=O)OC(C)(C)C)C4)c(=O)n(Cc3cccc(F)c3)c2=O)cc1C | 14.5 | 
44 (≈ 18.5 µg/mL) | 659 | Cc1ccc(-n2nc(C(=O)N3CCOCC3)c(=O)n(Cc3ccccc3)c2=O)cc1C | 95.8 | 70.1
15 (≈ 7.88 µg/mL) |  | Cc1ccc(-n2nc(C(=O)Nc3ccc(CN4CCOCC4)cc3)c(=O)n(Cc3ccccc3)c2=O)cc1C | 52.8 | 
24 (≈ 13.6 µg/mL) | 261 | Cc1ccc(-n2nc(C(=O)N3CCC[C@H](CNC(=O)OC(C)(C)C)C3)c(=O)n(Cc3cccc(F)c3)c2=O)cc1C | 99.9 | 92.2
103 (≈ 37.3 µg/mL) |  | COc1cccc(Cn2c(=O)c(C#N)nn(-c3ccc(C)c(C)c3)c2=O)c1 | 97.4 | 48.9
